Series [1] concerns IL-17A. In words: TH17 cytokine inhibition as measured by ELISA: IL-17A. The format is cell-based. The note with it: 120 h; human TH17 cells, 5 days differentiation, ELISA of supernatant. The method, then: (§1) Peripheral blood mononuclear cells (PBMCs) were sourced from freshly prepared leukocyte enriched plasma (buffy coat) from healthy volunteers from which PBMCs were isolated by density gradient centrifugation using Ficoll-Paque™ PLUS (GE Healthcare). Naïve CD4+ T cells were isolated using the Naïve CD4+ T cell Isolation Kit II (Miltenyi Biotec) as per manufacturer's instructions. CD4+ T cells were plated at 5×10^4 cells/well in 96 well plates pre-coated with immobilized human (h)-αCD3 antibody (eBioscience) then differentiated to TH17 cells using h-αCD28, h-αIFNγ, h-αIL4, h-IL6, h-IL23, h-IL1β, h-TGFβ1 (eBioscience) and maintained in a cell culture incubator at 37° C. with 5% CO2 in TexMACS Medium (Miltenyi Biotec) supplemented with 1% Penicillin/Streptomycin (Lonza) over 5 days.
(§2) Human CD4+ T cells were differentiated to TH17 cells as described in the presence or absence of various concentrations of compounds in a final concentration of 0.1% DMSO in TexMACS medium. Supernatants were collected and stored at −20° C. until they were to be assayed for IL-17A, IL-17F, IL-17AF, IL-21 and/or IL-22 levels as determined by Ready-Set-Go ELISA kits (eBioscience) as per manufacturer's instructions. Endpoint absorbance was read at 450 nm and 570 nm according to manufacturer's instructions (eBioscience) using a microplate reader (Perkin Elmer). The percentage of cytokine inhibition was calculated with reference to DMSO treated cells and the IC50s were determined by GraphPad Prism software and presented in the table below.
A general note: In an ELISA, binding on a coated surface is turned into a signal by an enzyme label.

For another series, the system named is IL-22. In words: TH17 cytokine inhibition as measured by ELISA: IL-22. The format is cell-based. The note with it: 120 h; human TH17 cells, 5 days differentiation, ELISA of supernatant. As to the method: as §1, §2
Series [2] is described as follows: TH17 cell viability (Prestoblue). The format is cell-based. The arrangement: concentration or dose not given beside the values. The note with it: human; percentage of DMSO treated cells; read-out: % viability of compound treated TH17 cells. The method, then: as §1
Cells were assayed for viability in the presence or absence of compound using Prestoblue® Cell Viability Reagent (Life Technologies) as per manufacturer's instructions after 30 minutes incubation of TH17 cells with reagent. Absorbance was measured at 570 nm and 600 nm using a microplate reader (Perkin Elmer) and data were analyzed as per manufacturer's instructions. Cell viability was expressed as a percentage of DMSO treated cells.

Series [3] concerns IL-17A. In words: Real-time qRT-PCR in TH17 cells: IL-17A gene expression. It counts as cell-based, human. The arrangement: key: A: No change in gene expression observed relative to DMSO treated Th17 cells; B: Decreased gene expression observed relative to DMSO treated Th17 cells; C: Increased gene expression observed relative to DMSO treated Th17 cells. As to the method:
as §1
RNA was isolated from TH17 cells and cDNA was synthesized using the Verso cDNA kit (Thermo Scientific) as per manufacturer's instructions. IL-17A, IL-17F, IL-21, IL-22, G-CSF, IL-23R and FOXP3 gene expression were determined for compound treated and untreated TH17 cell samples using Solaris qPCR Gene expression assays (Thermo Scientific) with an iCycler iQ Real-Time PCR Detection System (Bio-Rad). Individual gene expression was normalized to a panel of six reference genes (ACTB, TBP, HPRT1, PGK1, TFRC and PPIA) (Thermo Scientific) and analyzed by REST 2009 (Qiagen) in accordance to MIQE guidelines (Bustin et al. (2009) Clin. Chem, 55:611-622). The effects of compounds on TH17 cytokine mRNA levels are presented as fold change in gene expression of compound treated TH17 cells relative to DMSO treated cells in the table below.
(In general: In qPCR the cycle at which signal appears reflects the starting amount.)

For the next series, the target named is RORγ LBD (Homo sapiens (Human), UniProt P51449). In words: RORγ LBD binding (Human RORγ Assay System, INDIGO Biosciences). The note with it: 0.5% DMSO. As to the method: Compound binding to the human RORγ LBD was assessed using the Human RORγ Assay System (INDIGO Biosciences Inc.) as per manufacturer's instructions.
Sequence of RORγ LBD (P51449 269-508): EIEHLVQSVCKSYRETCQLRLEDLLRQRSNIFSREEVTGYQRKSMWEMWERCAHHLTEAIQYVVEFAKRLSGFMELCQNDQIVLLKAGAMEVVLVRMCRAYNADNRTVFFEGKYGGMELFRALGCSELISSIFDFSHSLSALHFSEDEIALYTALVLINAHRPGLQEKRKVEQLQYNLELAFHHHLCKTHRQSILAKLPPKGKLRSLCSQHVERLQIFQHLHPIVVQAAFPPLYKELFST
For the next series, the target named is RORα LBD (Homo sapiens (Human), UniProt P35398). In words: TR-FRET co-activator D22 interaction with RORα LBD. It counts as biochemical. An excerpt: The Time-Resolved Fluorescence Resonance Energy Transfer (TR-FRET) assay kit (Life Technologies) was used to measure compound efficacy to disrupt or enhance ligand-mediated interaction of the co-activator and co-repressor peptides with the purified GST-tagged (i) RORγ LBD or (ii) […]. The RORγ LBD and RORα LBD each have a basal level of interaction with the co-activator D22 or co-repressor NCoR1-D2 in the absence of ligand, thus it is possible to identify compounds that inhibit or induce RORγ and/or RORα co-activator/co-repressor interactions, thus determining RORα, RORγ, or RORα/RORγ compound selectivity. The assay was performed as per manufacturer's instructions and TR-FRET was assessed 2 and 20 hours post-assay initiation. Compounds were identified to (i) have no impact on either co-activator displacement or […] from the assessed LBD (ii) promote co-activator displacement from the assessed LBD (iii) promote co-repressor recruitment to the assessed LBD or (iv) concurrently promote co-activator displacement from the assessed LBD and co-repressor recruitment to the assessed LBD.
Sequence of RORα LBD (P35398 272-510): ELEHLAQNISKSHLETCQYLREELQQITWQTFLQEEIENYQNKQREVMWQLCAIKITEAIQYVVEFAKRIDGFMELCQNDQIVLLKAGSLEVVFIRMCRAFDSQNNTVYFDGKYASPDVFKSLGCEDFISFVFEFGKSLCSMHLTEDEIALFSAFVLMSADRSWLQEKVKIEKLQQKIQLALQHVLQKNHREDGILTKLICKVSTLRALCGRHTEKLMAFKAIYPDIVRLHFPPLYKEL
(In general: Time-resolved FRET reads energy transfer from a long-lived donor to a nearby acceptor.)

The next series concerns IL-17AF. In words: TH17 cytokine inhibition as measured by ELISA: IL-17AF. The format is cell-based. The note with it: 120 h; human TH17 cells, 5 days differentiation, ELISA of supernatant. As to the method: as §1, §2
In the next series the test system is IL-21. In words: TH17 cytokine inhibition as measured by ELISA: IL-21. The settings on record: 120 h; human TH17 cells, 5 days differentiation, ELISA of supernatant. It counts as cell-based.
From the text: Peripheral blood mononuclear cells (PBMCs) were sourced from freshly prepared leukocyte enriched plasma (buffy coat) from healthy volunteers from which PBMCs were isolated by density gradient centrifugation using Ficoll-Paque™ PLUS (GE Healthcare). Naïve CD4+ T cells were isolated using the Naïve CD4+ T cell Isolation Kit II (Miltenyi Biotec) as per manufacturer's instructions. […]
as §2

The mark [4] stands for this setting: 2 hr, read-out: RORα EC50 D22 co-activator displacement 2 hr.
Setting [5] is: 20 hr, read-out: RORα EC50 D22 co-activator displacement 20 hr.

Structures are written as SMILES. Where two headings read alike, the source gives them in different places.

For `CS(=O)(=O)Nc1ccc2c(c1)CCCN2Cc1ccc(C(O)(C(F)(F)F)C(F)(F)F)cc1` [Example 5, N-(1-(4-(1,1,1,3,3,3-hexafluoro-2-hydroxypropan-2-yl)benzyl)-1,2,3,4-tetrahydroquinolin-6-yl)methanesulfonamide], the half-inhibitory concentration (IC50) in the series on IL-17A [1], with IL-22 and at RORγ LBD was less than 10 µM throughout. The viability in series [2] was greater than 80%. Besides, the “Fold change in mRNA level of compound treated TH17 cells relative to DMSO treated cells IL-17A” value with IL-17A [3] is listed as “B”. The EC50 at RORα LBD (setting [4]) and on RORα LBD (setting [5]) was less than 30 µM throughout.
As for `CC(=O)Nc1ccc2c(c1)CCCN2Cc1ccc(C(O)(C(F)(F)F)C(F)(F)F)cc1` [Example 2, N-(1-(4-(1,1,1,3,3,3-hexafluoro-2-hydroxypropan-2-yl)benzyl)-1,2,3,4-tetrahydroquinolin-6-yl)acetamide], the IC50 in the series on IL-17A [1], in the series with IL-17AF, in the series with IL-22 and at RORγ LBD was less than 10 µM throughout. Moreover, the viability in series [2] was greater than 80%. In addition, in the series on IL-17A [3], the “Fold change in mRNA level of compound treated TH17 cells relative to DMSO treated cells IL-17A” value is “A”. Besides, the EC50 on RORα LBD (setting [4]) was less than 30 µM; on RORα LBD (setting [5]), greater than 30 µM.
In the case of `CC(=O)Nc1ccc2c(c1)CCN2Cc1ccc(C(O)(C(F)(F)F)C(F)(F)F)cc1` [Example 4, N-(1-(4-(1,1,1,3,3,3-hexafluoro-2-hydroxypropan-2-yl)benzyl)indolin-5-yl)acetamide], the IC50 in the series on IL-17A [1], with IL-17AF, with IL-22, with IL-21 and at RORγ LBD was less than 10 µM each time. For the same compound, the viability in series [2] is greater than 80%. Also, the “Fold change in mRNA level of compound treated TH17 cells relative to DMSO treated cells IL-17A” value in the series on IL-17A [3] is “B”. Besides, the EC50 on RORα LBD (setting [4]) and on RORα LBD (setting [5]) was greater than 30 µM each time.

What is called IC50 is the midpoint of a concentration-inhibition curve. Usually viability stands for a read-out of living cells in per cent, often relative to untreated cells. Broadly, the EC50 is the concentration that produces a half-maximal response.

Values taken from US9321750B2, “ROR modulators and their uses” (INNOV17 LLC, priority 2012, dated 2016).
